# Experimental data as given in PubChem BioAssay AID1918955 (Molecular Pharmacology Branch, DTP, NCI, 2023).
# Test system: NCI/ADR-RES complex spheroid viability
# Test: Anticancer human tumor NCI/ADR-RES cell line growth inhibition;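 further: spheroids exposed to compounds for 7 days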;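 on viability, T/C: 100% = DMSO vehicle treated spheroids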
# Details: for IC50: curve of first compound; for viability, T/C: stronger effect = lower value
# How it was run: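 Drug combinations with the LSD1 inhibitor iadademstat tested on tumor cells co-cultured as spheroids with endothelial cells and mesenchymal stem cells. Concentrations descended in half-log increments from clinical Cmax or 10 microM.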
smiles,measurement,setting,value
CC(C)c1c(-c2ccccc2)nc2c(C#N)c[nH]n2c1=O + NC1CCC(NC2CC2c2ccccc2)CC1,IC50,second compound 0.1 µM,> 10 µM
same,IC50,second compound 0.316 µM,> 10 µM
same,IC50,second compound 1 µM,> 10 µM
same,IC50,second compound 3.16 µM,> 10 µM
same,IC50,second compound 10 µM,> 10 µM
same,"viability, T/C","second compound 0.1 µM, first compound 0.0316 µM",102%
same,"viability, T/C","second compound 0.1 µM, first compound 0.1 µM",111%
same,"viability, T/C","second compound 0.1 µM, first compound 0.316 µM",109%
same,"viability, T/C","second compound 0.1 µM, first compound 1 µM",100%
same,"viability, T/C","second compound 0.1 µM, first compound 3.16 µM",99.1%
same,"viability, T/C","second compound 0.1 µM, first compound 10 µM",105%
same,"viability, T/C","second compound 0.316 µM, first compound 0.0316 µM",102%
same,"viability, T/C","second compound 0.316 µM, first compound 0.1 µM",112%
same,"viability, T/C","second compound 0.316 µM, first compound 0.316 µM",105%
same,"viability, T/C","second compound 0.316 µM, first compound 1 µM",113%
same,"viability, T/C","second compound 0.316 µM, first compound 3.16 µM",103%
same,"viability, T/C","second compound 0.316 µM, first compound 10 µM",98.4%
same,"viability, T/C","second compound 1 µM, first compound 0.0316 µM",108%
same,"viability, T/C","second compound 1 µM, first compound 0.1 µM",111%
same,"viability, T/C","second compound 1 µM, first compound 0.316 µM",110%
same,"viability, T/C","second compound 1 µM, first compound 1 µM",107%
same,"viability, T/C","second compound 1 µM, first compound 3.16 µM",104%
same,"viability, T/C","second compound 1 µM, first compound 10 µM",104%
same,"viability, T/C","second compound 3.16 µM, first compound 0.0316 µM",105%
same,"viability, T/C","second compound 3.16 µM, first compound 0.1 µM",104%
same,"viability, T/C","second compound 3.16 µM, first compound 0.316 µM",108%
same,"viability, T/C","second compound 3.16 µM, first compound 1 µM",107%
same,"viability, T/C","second compound 3.16 µM, first compound 3.16 µM",105%
same,"viability, T/C","second compound 3.16 µM, first compound 10 µM",97.3%
same,"viability, T/C","second compound 10 µM, first compound 0.0316 µM",105%
same,"viability, T/C","second compound 10 µM, first compound 0.1 µM",98.9%
same,"viability, T/C","second compound 10 µM, first compound 0.316 µM",98.6%
same,"viability, T/C","second compound 10 µM, first compound 1 µM",97.5%
same,"viability, T/C","second compound 10 µM, first compound 3.16 µM",97.1%
same,"viability, T/C","second compound 10 µM, first compound 10 µM",91.5%
